This is an account of results in US9944608B2, “Herbicidal pyridazinone derivatives” (Syngenta Participations AG, priority 2014, dated 2018).

Holding throughout (assay): B1 Post-emergence efficacy, glasshouse pot test
What all share (format): in vivo
Details in all cases: post-emergence application, 1000 g/ha, evaluated after 13 days

Test [1] has as its system Amaranthus retoflexus (AMARE). As to the method: (§1) B1 Post-Emergence Efficacy Seeds of a variety of test species are sown in standard soil in pots:—Solanum nigrum (SOLNI), Amaranthus retoflexus (AMARE), Setaria faberi (SETFA), Alopecurus myosuroides (ALOMY), Echinochloa crus-galli (ECHCG), Ipomoea hederacea (IPOHE), Lolium perenne (LOLPE). After 8 days cultivation (post-emergence) under controlled conditions in a glasshouse (at 24/16° C., day/night; 14 hours light; 65% humidity), the plants are sprayed with an aqueous spray solution derived from the formulation of the technical active ingredient in acetone/water (50:50) solution containing 0.5% Tween 20 (polyoxyethelyene sorbitan monolaurate, CAS RN 9005-64-5). Compounds are applied at 1000 g/ha. The test plants are then grown in a glasshouse under controlled conditions in a glasshouse (at 24/16° C., day/night; 14 hours light; 65% humidity) and watered twice daily. After 13 days, the test is evaluated for the percentage damage caused to the plant. The biological activities are assessed on a five point scale (5=80-100%; 4=60-79%; 3=40-59%; 2=20-39%; 1=0-19%). A blank value in the table is indicative that the compound was not tested on that species.

For test [2], the system named is Echinochloa crus-galli (ECHCG). As to the method:
as §1

Test [3] deals with Ipomoea hederacea (IPOHE). As to the method: as §1
Test [4] concerns Lolium perenne (LOLPE). As to the method:
as §1

Test [5] deals with Setaria faberi (SETFA). As to the method:
as §1

Test [6] deals with Solanum nigrum (SOLNI). The method, then: as §1

For `Cn1nc(N)c(O)c(-c2c(F)ccc(Cl)c2OCc2ccccc2)c1=O` [Compound 1.078], in test [1], the “AMARE: percentage damage caused to the plant (five point scale)” value (shortened to “AMARE: percentage damage caused”) was 3 (3=40-59%). Further, the “ECHCG: percentage damage caused to the plant (five point scale)” value (shortened to “ECHCG: percentage damage caused”) in test [2] is reported as 2 (2=20-39%). In addition, the “IPOHE: percentage damage caused to the plant (five point scale)” value (shortened to “IPOHE: percentage damage caused”) in test [3] is recorded as 4 (4=60-79%). The “LOLPE: percentage damage caused to the plant (five point scale)” value (shortened to “LOLPE: percentage damage caused”) in test [4] is on record as 1 (1=0-19%). For the same compound, the “SETFA: percentage damage caused to the plant (five point scale)” value (shortened to “SETFA: percentage damage caused”) in test [5] was 3 (3=40-59%). Besides, the “SOLNI: percentage damage caused to the plant (five point scale)” value (shortened to “SOLNI: percentage damage caused”) in test [6] is 5 (5=80-100%).

Regarding `CCc1nn(C)c(=O)c(-c2c(F)ccc(Cl)c2OCc2ccccc2)c1O` [Compound 1.010], in test [1], the “AMARE: percentage damage caused” value is listed as 5 (5=80-100%). Further, the “ECHCG: percentage damage caused” value in test [2] was 4 (4=60-79%). The “IPOHE: percentage damage caused” value in test [3] is listed as 5 (5=80-100%). In test [4], the “LOLPE: percentage damage caused” value is listed as 4 (4=60-79%). Also, the “SETFA: percentage damage caused” value in test [5] is reported as 3 (3=40-59%). Moreover, in test [6], the “SOLNI: percentage damage caused” value is given as 5 (5=80-100%).

Turning to `Cc1nn(C)c(=O)c(-c2c(C(F)(F)F)ccc(F)c2OCc2ccccc2)c1O` [Compound 1.069], the “AMARE: percentage damage caused” value in test [1] is listed as 3 (3=40-59%). In addition, in test [2], the “ECHCG: percentage damage caused” value is 5 (5=80-100%). For the same compound, in test [3], the “IPOHE: percentage damage caused” value is 5 (5=80-100%). Further, the “LOLPE: percentage damage caused” value in test [4] is 3 (3=40-59%). The “SETFA: percentage damage caused” value in test [5] is 5 (5=80-100%). In addition, the “SOLNI: percentage damage caused” value in test [6] is 5 (5=80-100%).

On to `Cn1nc(C2CC2)c(O)c(-c2c(Cl)ccc(Cl)c2OCc2ccccc2)c1=O` [Compound 1.009], for which the “AMARE: percentage damage caused” value in test [1] is 5 (5=80-100%). In addition, in test [2], the “ECHCG: percentage damage caused” value is given as 5 (5=80-100%). In addition, the “IPOHE: percentage damage caused” value in test [3] is 5 (5=80-100%). Besides, the “LOLPE: percentage damage caused” value in test [4] is given as 5 (5=80-100%). For the same compound, in test [5], the “SETFA: percentage damage caused” value is listed as 5 (5=80-100%). Further, the “SOLNI: percentage damage caused” value in test [6] was 5 (5=80-100%).

In the case of `Cn1nc(C2CC2)c(O)c(-c2c(F)ccc(Cl)c2OCc2ccccc2)c1=O` [Compound 1.012], the “AMARE: percentage damage caused” value in test [1] is recorded as 5 (5=80-100%). Besides, the “ECHCG: percentage damage caused” value in test [2] is given as 5 (5=80-100%). For the same compound, the “IPOHE: percentage damage caused” value in test [3] is recorded as 5 (5=80-100%). In test [4], the “LOLPE: percentage damage caused” value was 5 (5=80-100%). In addition, in test [5], the “SETFA: percentage damage caused” value is 5 (5=80-100%). Moreover, the “SOLNI: percentage damage caused” value in test [6] was 5 (5=80-100%).

For the compound `Cc1nn(C)c(=O)c(-c2c(F)ccc(F)c2OCc2ccccc2)c1O` [Compound 1.016], in test [1], the “AMARE: percentage damage caused” value is 5 (5=80-100%). Besides, the “ECHCG: percentage damage caused” value in test [2] is listed as 5 (5=80-100%). Further, the “IPOHE: percentage damage caused” value in test [3] is 5 (5=80-100%). The “LOLPE: percentage damage caused” value in test [4] is on record as 4 (4=60-79%). Besides, the “SETFA: percentage damage caused” value in test [5] is given as 5 (5=80-100%). Besides, in test [6], the “SOLNI: percentage damage caused” value is reported as 5 (5=80-100%).

With `CSc1nn(C)c(=O)c(-c2c(F)ccc(Cl)c2OCc2ccccc2)c1O` [Compound 1.084], the “AMARE: percentage damage caused” value in test [1] was 3 (3=40-59%). For the same compound, the “ECHCG: percentage damage caused” value in test [2] is 1 (1=0-19%). Besides, the “IPOHE: percentage damage caused” value in test [3] is 5 (5=80-100%). The “LOLPE: percentage damage caused” value in test [4] was 4 (4=60-79%). For the same compound, the “SETFA: percentage damage caused” value in test [5] was 2 (2=20-39%). The “SOLNI: percentage damage caused” value in test [6] is reported as 5 (5=80-100%).

With `CN(C)c1nn(C)c(=O)c(-c2c(F)ccc(Cl)c2OCc2ccccc2)c1O` [Compound 1.085], the “AMARE: percentage damage caused” value in test [1] was 5 (5=80-100%). Moreover, the “ECHCG: percentage damage caused” value in test [2] is 4 (4=60-79%). In addition, in test [3], the “IPOHE: percentage damage caused” value is reported as 5 (5=80-100%). In addition, the “LOLPE: percentage damage caused” value in test [4] is 5 (5=80-100%). For the same compound, the “SETFA: percentage damage caused” value in test [5] is reported as 3 (3=40-59%). The “SOLNI: percentage damage caused” value in test [6] was 5 (5=80-100%).

Turning to `Cc1nn(C)c(=O)c(-c2c(Cl)cccc2OCc2ccccc2)c1O` [Compound 1.068], the “AMARE: percentage damage caused” value in test [1] is 3 (3=40-59%). Also, the “ECHCG: percentage damage caused” value in test [2] was 4 (4=60-79%). In addition, the “IPOHE: percentage damage caused” value in test [3] is recorded as 4 (4=60-79%). In addition, the “LOLPE: percentage damage caused” value in test [4] is recorded as 2 (2=20-39%). Also, the “SETFA: percentage damage caused” value in test [5] is 4 (4=60-79%). Also, in test [6], the “SOLNI: percentage damage caused” value is recorded as 5 (5=80-100%).

Turning to `Cc1nn(C)c(=O)c(-c2c(C(F)(F)F)ccc(Cl)c2OCc2ccccc2)c1O` [Compound 1.073], the “AMARE: percentage damage caused” value in test [1] is reported as 3 (3=40-59%). In addition, in test [2], the “ECHCG: percentage damage caused” value is on record as 5 (5=80-100%). Further, in test [3], the “IPOHE: percentage damage caused” value is 5 (5=80-100%). Also, in test [4], the “LOLPE: percentage damage caused” value is 3 (3=40-59%). In test [5], the “SETFA: percentage damage caused” value is listed as 5 (5=80-100%). Besides, in test [6], the “SOLNI: percentage damage caused” value is recorded as 5 (5=80-100%).

For the compound `Cn1nc([S+](C)[O-])c(O)c(-c2c(F)ccc(Cl)c2OCc2ccccc2)c1=O` (stereo not drawn) [Compound 1.080], in test [1], the “AMARE: percentage damage caused” value is given as 2 (2=20-39%). Further, in test [2], the “ECHCG: percentage damage caused” value is reported as 1 (1=0-19%). In test [3], the “IPOHE: percentage damage caused” value is 5 (5=80-100%). Moreover, the “LOLPE: percentage damage caused” value in test [4] is recorded as 2 (2=20-39%). For the same compound, the “SETFA: percentage damage caused” value in test [5] is on record as 1 (1=0-19%). Further, the “SOLNI: percentage damage caused” value in test [6] is 5 (5=80-100%).

In the case of `CSc1nn(C)c(=O)c(-c2c(Cl)ccc(Cl)c2OCc2ccccc2)c1O` [Compound 1.086], in test [1], the “AMARE: percentage damage caused” value is listed as 3 (3=40-59%). In addition, the “ECHCG: percentage damage caused” value in test [2] is given as 2 (2=20-39%). Also, the “IPOHE: percentage damage caused” value in test [3] is reported as 5 (5=80-100%). Also, in test [4], the “LOLPE: percentage damage caused” value was 4 (4=60-79%). For the same compound, in test [5], the “SETFA: percentage damage caused” value is on record as 4 (4=60-79%). For the same compound, the “SOLNI: percentage damage caused” value in test [6] was 5 (5=80-100%).

On to `Cn1nc(C2CC2)c(O)c(-c2c(C(F)(F)F)ccc(Cl)c2OCc2ccccc2)c1=O` [Compound 1.070], for which the “AMARE: percentage damage caused” value in test [1] is 5 (5=80-100%). For the same compound, the “ECHCG: percentage damage caused” value in test [2] is 5 (5=80-100%). Moreover, the “IPOHE: percentage damage caused” value in test [3] is on record as 5 (5=80-100%). Further, the “LOLPE: percentage damage caused” value in test [4] is on record as 5 (5=80-100%). Also, the “SETFA: percentage damage caused” value in test [5] was 5 (5=80-100%). The “SOLNI: percentage damage caused” value in test [6] is 5 (5=80-100%).

For the compound `COc1ccc(COc2c(Cl)ccc(Cl)c2-c2c(O)c(C)nn(C)c2=O)cc1` [Compound 1.067], the “AMARE: percentage damage caused” value in test [1] was 2 (2=20-39%). Moreover, in test [2], the “ECHCG: percentage damage caused” value is recorded as 5 (5=80-100%). Also, in test [3], the “IPOHE: percentage damage caused” value is 5 (5=80-100%). Besides, the “LOLPE: percentage damage caused” value in test [4] was 5 (5=80-100%). Further, in test [5], the “SETFA: percentage damage caused” value is reported as 5 (5=80-100%). In addition, the “SOLNI: percentage damage caused” value in test [6] is given as 5 (5=80-100%).

For `Cn1nc(S(C)(=O)=O)c(O)c(-c2c(Cl)ccc(Cl)c2OCc2ccccc2)c1=O` [Compound 1.082], the “AMARE: percentage damage caused” value in test [1] was 1 (1=0-19%). In addition, in test [2], the “ECHCG: percentage damage caused” value is 1 (1=0-19%). Also, in test [3], the “IPOHE: percentage damage caused” value was 3 (3=40-59%). Further, in test [4], the “LOLPE: percentage damage caused” value is listed as 1 (1=0-19%). In test [5], the “SETFA: percentage damage caused” value is given as 2 (2=20-39%). Besides, the “SOLNI: percentage damage caused” value in test [6] is 5 (5=80-100%).

Regarding `Cc1nn(C)c(=O)c(-c2c(Cl)ccc(F)c2OCc2ccccc2)c1O` [Compound 1.014], the “AMARE: percentage damage caused” value in test [1] was 4 (4=60-79%). Moreover, the “ECHCG: percentage damage caused” value in test [2] is reported as 4 (4=60-79%). The “IPOHE: percentage damage caused” value in test [3] was 5 (5=80-100%). In addition, the “LOLPE: percentage damage caused” value in test [4] is 3 (3=40-59%). For the same compound, the “SETFA: percentage damage caused” value in test [5] is 5 (5=80-100%). Also, the “SOLNI: percentage damage caused” value in test [6] is listed as 5 (5=80-100%).

For `Cn1nc(C(F)(F)F)c(O)c(-c2c(C(F)(F)F)ccc(Cl)c2OCc2ccccc2)c1=O` [Compound 1.071], the “AMARE: percentage damage caused” value in test [1] was 3 (3=40-59%). The “ECHCG: percentage damage caused” value in test [2] is 4 (4=60-79%). Besides, the “IPOHE: percentage damage caused” value in test [3] is listed as 5 (5=80-100%). For the same compound, in test [4], the “LOLPE: percentage damage caused” value was 3 (3=40-59%). In addition, the “SETFA: percentage damage caused” value in test [5] is on record as 5 (5=80-100%). Besides, the “SOLNI: percentage damage caused” value in test [6] was 5 (5=80-100%).
